Measurements: ChEMBL document CHEMBL1201862, “PubChem BioAssay data set” (2004)
Activity calls are given as the source filed them.

Tests used:
[1] = biological target: T1, Aryl hydrocarbon receptor (Homo sapiens, UniProt P35869); conditions: Potency;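 note: confirmatory quantitative high-throughput screen measuring activation of the AhR signaling pathway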
T1 sequence (P35869 whole entry): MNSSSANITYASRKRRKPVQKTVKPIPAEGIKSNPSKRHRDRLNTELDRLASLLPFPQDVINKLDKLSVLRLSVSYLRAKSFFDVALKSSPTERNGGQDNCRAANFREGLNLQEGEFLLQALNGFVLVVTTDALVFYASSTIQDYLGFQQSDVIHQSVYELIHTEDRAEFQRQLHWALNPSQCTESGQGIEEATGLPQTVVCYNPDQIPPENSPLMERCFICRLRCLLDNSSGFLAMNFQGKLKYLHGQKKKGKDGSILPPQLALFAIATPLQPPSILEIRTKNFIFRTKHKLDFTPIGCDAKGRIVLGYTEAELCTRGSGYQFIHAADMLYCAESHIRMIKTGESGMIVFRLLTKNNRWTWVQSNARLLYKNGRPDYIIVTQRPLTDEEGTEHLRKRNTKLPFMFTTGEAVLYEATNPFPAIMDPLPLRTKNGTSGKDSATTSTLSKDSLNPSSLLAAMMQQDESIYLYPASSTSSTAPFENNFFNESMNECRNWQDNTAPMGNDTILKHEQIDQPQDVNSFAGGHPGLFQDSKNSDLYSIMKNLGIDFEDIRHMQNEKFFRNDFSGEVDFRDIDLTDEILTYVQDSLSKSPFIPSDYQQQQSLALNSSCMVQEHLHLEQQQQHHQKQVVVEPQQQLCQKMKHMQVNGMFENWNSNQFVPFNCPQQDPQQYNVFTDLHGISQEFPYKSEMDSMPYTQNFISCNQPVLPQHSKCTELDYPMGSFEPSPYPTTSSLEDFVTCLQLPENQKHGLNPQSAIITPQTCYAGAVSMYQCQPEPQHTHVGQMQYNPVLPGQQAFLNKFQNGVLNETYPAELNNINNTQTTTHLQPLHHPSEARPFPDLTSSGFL

Cytochrome P450 3A4 = Cytochrome P450 3A4 (Homo sapiens, UniProt P08684); conditions: Potency;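 note: confirmatory qHTS run detecting inhibitors and substrates of CYP3A4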
Chain of Cytochrome P450 3A4 (P08684 whole entry): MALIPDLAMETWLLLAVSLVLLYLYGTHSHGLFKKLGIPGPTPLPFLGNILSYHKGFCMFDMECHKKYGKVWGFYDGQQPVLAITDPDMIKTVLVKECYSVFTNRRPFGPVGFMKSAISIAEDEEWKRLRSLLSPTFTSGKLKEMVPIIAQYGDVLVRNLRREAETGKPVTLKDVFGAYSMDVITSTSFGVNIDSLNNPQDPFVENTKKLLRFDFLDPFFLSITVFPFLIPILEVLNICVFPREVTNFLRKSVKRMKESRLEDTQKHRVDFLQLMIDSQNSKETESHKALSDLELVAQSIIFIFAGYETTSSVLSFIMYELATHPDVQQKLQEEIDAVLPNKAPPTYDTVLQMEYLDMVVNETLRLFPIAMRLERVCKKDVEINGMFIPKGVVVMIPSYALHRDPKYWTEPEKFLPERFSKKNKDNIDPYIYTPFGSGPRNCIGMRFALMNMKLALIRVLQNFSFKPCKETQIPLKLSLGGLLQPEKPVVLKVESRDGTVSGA

BJ [2] = test: BJ-TERT fibroblast viability loss – cell-based, RAS-independent, luminescence, dose response (AID 1933); type: functional; conditions: Homo sapiens
BJ [3] = test: cells; type: functional, cell-based; conditions: Homo sapiens
[4] = biological target: Adenosylmethionine-8-amino-7-oxononanoate aminotransferase (Mycobacterium tuberculosis, UniProt P9WQ81); test: Mycobacterium tuberculosis BioA enzyme inhibitor Measured in Biochemical System Using Plate Reader - 2163-02_Inhibitor_Dose_CherryPick_Activity.; type: functional, Mycobacterium tuberculosis UT205
Chain of Adenosylmethionine-8-amino-7-oxononanoate aminotransferase (P9WQ81 whole entry): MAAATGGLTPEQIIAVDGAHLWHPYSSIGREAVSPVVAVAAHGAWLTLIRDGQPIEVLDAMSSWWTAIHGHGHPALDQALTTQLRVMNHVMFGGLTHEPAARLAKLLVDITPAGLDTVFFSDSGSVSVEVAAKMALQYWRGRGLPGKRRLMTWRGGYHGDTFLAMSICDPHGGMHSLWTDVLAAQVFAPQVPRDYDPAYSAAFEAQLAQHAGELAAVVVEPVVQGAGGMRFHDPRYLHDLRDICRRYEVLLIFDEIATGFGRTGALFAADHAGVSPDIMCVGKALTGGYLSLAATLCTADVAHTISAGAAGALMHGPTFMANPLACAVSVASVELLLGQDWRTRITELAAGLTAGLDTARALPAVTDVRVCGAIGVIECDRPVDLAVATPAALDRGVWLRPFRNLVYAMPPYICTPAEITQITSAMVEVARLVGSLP

[5] = DRD fibroblast viability loss – cell-based, non-viral oncogenic, luminescence, dose response (AID 1934); type: functional; conditions: Homo sapiens
BJ [6] = test: BJ-TERT-LT-ST fibroblast viability loss – cell-based, RAS-independent, luminescence, dose response (AID 1935); type: functional; conditions: Homo sapiens;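 note: BJ fibroblasts immortalized with TERT plus LT and ST oncogenes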
[7] = biological target: T2, Mitochondrial peptide methionine sulfoxide reductase (Bos taurus, UniProt P54149); type: functional;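 note: absorbance read-out, biochemical high-throughput dose-response screen for MsrA inhibitors, confirmatory; recombinant bovine MsrA coupled to E. coli TrxB with NADPH and selenocystamine; potency is for inhibitors of MsrA activity on DMSO substrate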
T2 sequence (P54149 whole entry): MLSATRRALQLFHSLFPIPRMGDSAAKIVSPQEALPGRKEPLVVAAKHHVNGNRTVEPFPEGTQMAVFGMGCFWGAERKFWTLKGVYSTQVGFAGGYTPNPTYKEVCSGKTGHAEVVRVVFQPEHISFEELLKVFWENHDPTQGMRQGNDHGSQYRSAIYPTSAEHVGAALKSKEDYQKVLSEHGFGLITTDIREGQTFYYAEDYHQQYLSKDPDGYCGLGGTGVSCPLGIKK

Vero = test: cells; type: functional; conditions: Chlorocebus sabaeus
[8] = biological target: T3, Sentrin-specific protease 1 (Homo sapiens, UniProt Q9P0U3); test: SENP1 catalytic domain blockers, concentration series – biochemical, kinetic FRET, dose response (AID 651697); type: functional; conditions: read-out: IC50_Mean
T3 sequence (Q9P0U3 whole entry): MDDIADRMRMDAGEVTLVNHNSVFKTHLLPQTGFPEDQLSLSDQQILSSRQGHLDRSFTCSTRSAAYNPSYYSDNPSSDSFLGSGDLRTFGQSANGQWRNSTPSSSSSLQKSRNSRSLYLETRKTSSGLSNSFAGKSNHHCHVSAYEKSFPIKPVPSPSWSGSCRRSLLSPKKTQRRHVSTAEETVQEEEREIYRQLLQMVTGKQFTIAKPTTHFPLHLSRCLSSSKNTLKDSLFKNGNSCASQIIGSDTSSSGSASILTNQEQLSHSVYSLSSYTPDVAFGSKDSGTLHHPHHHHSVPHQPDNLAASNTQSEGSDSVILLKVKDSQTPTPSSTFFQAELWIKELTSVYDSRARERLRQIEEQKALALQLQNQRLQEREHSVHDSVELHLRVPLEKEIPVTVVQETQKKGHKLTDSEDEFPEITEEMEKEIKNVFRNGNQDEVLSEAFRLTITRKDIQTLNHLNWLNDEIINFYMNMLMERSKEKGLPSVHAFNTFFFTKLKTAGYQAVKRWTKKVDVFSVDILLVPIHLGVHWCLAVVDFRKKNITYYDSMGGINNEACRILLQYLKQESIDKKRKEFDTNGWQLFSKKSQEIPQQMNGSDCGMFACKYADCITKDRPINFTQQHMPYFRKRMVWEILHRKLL

[9] = biological target: T3, Sentrin-specific protease 1; test: Dose response confirmation of small molecule inhibitors of the catalytic domain of the SUMO protease, SENP1 in a FRET assay.; type: functional; conditions: read-out: IC50_Mean
[10] = activation of miR-122 Renilla sensor silencing – cell-based, Huh7 psiCHECK-miR122, Renilla luciferase, cherry-picked, dose response (AID 651956); type: functional;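 note: huh7 hepatoma cells stably carrying a psiCHECK-2 miR-122 sensor plasmid; renilla luciferase signal reporting endogenous miR-122 activity after 48 h compound exposure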
[11] = biological target: PAS domain-containing serine/threonine-protein kinase (Homo sapiens, UniProt Q96RG2); type: functional
Chain of PAS domain-containing serine/threonine-protein kinase (Q96RG2 whole entry, the tested form may be a part): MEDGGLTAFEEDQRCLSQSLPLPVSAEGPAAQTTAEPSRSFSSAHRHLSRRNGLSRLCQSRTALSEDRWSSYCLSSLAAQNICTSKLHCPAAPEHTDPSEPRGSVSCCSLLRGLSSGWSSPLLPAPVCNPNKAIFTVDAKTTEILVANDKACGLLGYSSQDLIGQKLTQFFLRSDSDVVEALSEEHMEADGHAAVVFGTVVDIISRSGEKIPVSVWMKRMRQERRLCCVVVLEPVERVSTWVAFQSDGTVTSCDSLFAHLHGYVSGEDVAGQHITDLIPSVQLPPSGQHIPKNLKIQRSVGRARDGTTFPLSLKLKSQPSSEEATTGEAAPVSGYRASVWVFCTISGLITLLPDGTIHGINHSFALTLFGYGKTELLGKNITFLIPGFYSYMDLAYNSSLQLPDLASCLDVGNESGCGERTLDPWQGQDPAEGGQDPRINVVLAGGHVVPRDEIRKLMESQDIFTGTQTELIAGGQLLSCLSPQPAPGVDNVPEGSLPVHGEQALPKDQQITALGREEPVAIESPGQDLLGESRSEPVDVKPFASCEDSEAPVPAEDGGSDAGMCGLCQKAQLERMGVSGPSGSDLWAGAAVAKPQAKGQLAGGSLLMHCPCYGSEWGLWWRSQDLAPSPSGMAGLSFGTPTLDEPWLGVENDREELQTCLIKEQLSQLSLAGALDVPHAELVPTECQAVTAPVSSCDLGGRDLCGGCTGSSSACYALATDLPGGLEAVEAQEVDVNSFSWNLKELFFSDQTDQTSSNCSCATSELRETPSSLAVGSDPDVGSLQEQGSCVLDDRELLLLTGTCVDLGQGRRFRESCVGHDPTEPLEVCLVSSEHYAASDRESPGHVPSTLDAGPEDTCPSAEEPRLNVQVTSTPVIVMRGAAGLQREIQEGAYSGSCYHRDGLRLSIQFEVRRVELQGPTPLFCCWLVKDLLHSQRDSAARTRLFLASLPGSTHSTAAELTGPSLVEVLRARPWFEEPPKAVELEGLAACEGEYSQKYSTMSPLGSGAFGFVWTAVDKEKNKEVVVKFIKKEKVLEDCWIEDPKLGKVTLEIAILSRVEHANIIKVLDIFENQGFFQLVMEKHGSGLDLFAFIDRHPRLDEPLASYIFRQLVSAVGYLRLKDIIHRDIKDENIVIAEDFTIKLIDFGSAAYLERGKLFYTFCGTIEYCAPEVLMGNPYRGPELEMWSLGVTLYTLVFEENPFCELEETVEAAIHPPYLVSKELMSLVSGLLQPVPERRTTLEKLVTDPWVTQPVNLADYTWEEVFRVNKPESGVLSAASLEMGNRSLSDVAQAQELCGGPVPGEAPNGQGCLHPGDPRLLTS

[12] = biological target: T4, Testis-specific serine/threonine-protein kinase 2 (Homo sapiens, UniProt Q96PF2); type: functional;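 note: part of the Navigating the Kinome panel, target entry STK22B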
T4 sequence (Q96PF2 whole entry): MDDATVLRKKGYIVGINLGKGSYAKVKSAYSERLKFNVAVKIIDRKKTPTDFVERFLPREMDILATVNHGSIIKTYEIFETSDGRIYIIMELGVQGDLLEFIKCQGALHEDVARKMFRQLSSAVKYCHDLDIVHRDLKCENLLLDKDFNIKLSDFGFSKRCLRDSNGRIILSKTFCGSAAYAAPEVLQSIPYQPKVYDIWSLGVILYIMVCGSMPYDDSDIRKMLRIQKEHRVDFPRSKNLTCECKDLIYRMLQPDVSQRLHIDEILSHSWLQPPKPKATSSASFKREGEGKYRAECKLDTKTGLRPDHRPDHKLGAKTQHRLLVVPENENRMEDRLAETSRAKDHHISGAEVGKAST

[13] = biological target: MAP kinase-activated protein kinase 3 (Homo sapiens, UniProt Q16644); type: functional;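 note: value comes from a kinome-wide profiling panel in which MAPKAPK3 is one of the panel members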
Chain of MAP kinase-activated protein kinase 3 (Q16644 whole entry): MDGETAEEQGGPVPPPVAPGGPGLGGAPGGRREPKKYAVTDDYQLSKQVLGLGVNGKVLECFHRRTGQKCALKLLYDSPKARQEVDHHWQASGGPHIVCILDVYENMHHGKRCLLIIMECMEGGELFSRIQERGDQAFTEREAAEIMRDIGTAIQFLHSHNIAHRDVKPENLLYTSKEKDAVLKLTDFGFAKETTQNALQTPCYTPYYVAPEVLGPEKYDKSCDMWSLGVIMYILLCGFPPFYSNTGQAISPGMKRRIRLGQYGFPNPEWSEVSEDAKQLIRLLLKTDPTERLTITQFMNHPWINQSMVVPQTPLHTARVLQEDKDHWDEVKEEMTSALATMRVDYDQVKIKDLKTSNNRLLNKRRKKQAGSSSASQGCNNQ

[14] = biological target: Protein kinase C gamma type (Homo sapiens, UniProt P05129); type: functional
[15] = biological target: T5, Dual specificity tyrosine-phosphorylation-regulated kinase 3 (Homo sapiens, UniProt O43781); type: functional;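 note: measured as one member of a broad kinase panel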
T5 sequence (O43781 whole entry): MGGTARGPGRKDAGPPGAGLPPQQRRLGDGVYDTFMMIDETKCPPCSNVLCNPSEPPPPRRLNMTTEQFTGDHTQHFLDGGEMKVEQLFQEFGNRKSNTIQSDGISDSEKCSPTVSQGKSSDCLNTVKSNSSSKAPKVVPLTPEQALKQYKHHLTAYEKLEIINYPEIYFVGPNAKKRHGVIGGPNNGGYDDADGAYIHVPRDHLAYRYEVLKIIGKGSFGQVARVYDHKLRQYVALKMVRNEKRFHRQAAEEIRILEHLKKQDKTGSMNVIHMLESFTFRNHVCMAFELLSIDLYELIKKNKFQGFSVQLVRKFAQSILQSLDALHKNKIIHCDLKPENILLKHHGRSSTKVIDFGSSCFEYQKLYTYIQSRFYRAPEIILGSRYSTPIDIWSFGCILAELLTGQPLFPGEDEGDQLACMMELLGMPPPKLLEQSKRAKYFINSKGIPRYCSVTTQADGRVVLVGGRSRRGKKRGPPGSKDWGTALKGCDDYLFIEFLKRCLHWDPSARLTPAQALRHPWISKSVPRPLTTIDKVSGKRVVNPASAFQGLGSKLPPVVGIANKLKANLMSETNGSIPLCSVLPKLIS

[16] = biological target: T6, Protein kinase C zeta type (Homo sapiens, UniProt Q05513); type: functional;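 note: measured as one member of a broad kinase profiling panel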
T6 sequence (Q05513 whole entry): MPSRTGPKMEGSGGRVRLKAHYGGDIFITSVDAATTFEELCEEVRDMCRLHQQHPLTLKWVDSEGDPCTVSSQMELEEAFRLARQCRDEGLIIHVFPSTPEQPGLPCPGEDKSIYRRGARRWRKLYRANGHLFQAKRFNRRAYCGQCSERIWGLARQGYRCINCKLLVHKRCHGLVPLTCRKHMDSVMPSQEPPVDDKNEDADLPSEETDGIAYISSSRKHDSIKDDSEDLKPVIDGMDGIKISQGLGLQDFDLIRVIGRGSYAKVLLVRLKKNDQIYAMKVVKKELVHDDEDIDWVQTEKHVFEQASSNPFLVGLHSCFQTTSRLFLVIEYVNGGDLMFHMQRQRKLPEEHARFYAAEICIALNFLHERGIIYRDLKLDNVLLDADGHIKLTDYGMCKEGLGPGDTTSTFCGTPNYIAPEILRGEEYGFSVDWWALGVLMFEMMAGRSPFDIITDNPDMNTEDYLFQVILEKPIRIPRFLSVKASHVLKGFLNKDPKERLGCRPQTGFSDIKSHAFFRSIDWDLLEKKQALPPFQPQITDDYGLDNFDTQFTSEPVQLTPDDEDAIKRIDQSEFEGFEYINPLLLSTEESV

[17] = biological target: T7, Lymphokine-activated killer T-cell-originated protein kinase (Homo sapiens, UniProt Q96KB5); type: functional;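 note: value comes from a kinase panel screen in which TOPK was one of the panel members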
T7 sequence (Q96KB5 whole entry): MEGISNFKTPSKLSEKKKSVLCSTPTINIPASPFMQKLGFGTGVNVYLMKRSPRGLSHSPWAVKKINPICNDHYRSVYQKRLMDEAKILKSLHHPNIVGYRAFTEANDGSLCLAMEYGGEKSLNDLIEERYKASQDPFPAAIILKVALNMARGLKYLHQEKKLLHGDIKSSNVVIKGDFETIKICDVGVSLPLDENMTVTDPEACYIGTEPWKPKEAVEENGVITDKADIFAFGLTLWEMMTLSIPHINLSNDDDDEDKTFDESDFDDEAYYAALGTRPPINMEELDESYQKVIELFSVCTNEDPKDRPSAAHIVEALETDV

[18] = biological target: Cyclin-dependent kinase 1 (Homo sapiens, UniProt P06493); type: functional;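 note: Kinome-wide panel profiling, with the target listed as panel member CDC2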
Chain of Cyclin-dependent kinase 1 (P06493 whole entry): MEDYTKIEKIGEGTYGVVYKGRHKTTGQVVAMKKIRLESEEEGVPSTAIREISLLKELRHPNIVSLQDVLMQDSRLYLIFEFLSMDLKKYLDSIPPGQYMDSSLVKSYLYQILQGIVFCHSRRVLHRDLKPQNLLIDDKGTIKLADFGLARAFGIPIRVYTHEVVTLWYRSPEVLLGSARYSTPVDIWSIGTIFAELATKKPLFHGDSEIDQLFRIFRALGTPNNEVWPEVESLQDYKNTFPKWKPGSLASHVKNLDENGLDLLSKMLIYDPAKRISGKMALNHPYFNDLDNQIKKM

COc1ccc(C(=O)Nc2ccccc2)cc1[N+](=O)[O-]
AC50 [1]: 44.7 µM (inconclusive) | AC50 (Cytochrome P450 3A4): 15.8 µM (inconclusive)

CC(=O)c1ccc(N2CCN(c3ncccn3)CC2)c([N+](=O)[O-])c1
EC50 (BJ [2]): > 150 µM (not active) | EC50 (BJ [3]): > 150 µM (not active) | AC50 [4]: 1.02 µM (active) | EC50 [5]: > 150 µM (not active) | EC50 (BJ [6]): > 150 µM (inconclusive)

CSc1nc2[nH]c3c(c2c2nnnn12)CCCC3
IC50 [7]: 155 µM (inactive)

COc1cc2cnc(-c3cccnc3)cc2cc1OC
AC50 [4]: 11.2 µM (active)

O=c1c2ccccc2nc(/C=C/c2cc(Br)ccc2O)n1CCO
CC50 (Vero): 15.2 µM (active) | IC50 [8]: 8.91 µM (active) | IC50 [9]: 6.14 µM (active)

CC(C)(C)[C@@H](O)/C(=C\c1ccc(Cl)cc1Cl)n1cncn1
AC50 [1]: 70.8 µM (inconclusive)

CNC(=O)C[C@@H]1CC[C@H]2[C@@H](COc3ccc(NC(=O)c4cccc(OC)c4)cc3C(=O)N2C)O1
AC50 [10]: 54.9 µM (active)

CN1CCN(c2ccc3nc(-c4c(N)c5c(F)cccc5[nH]c4=O)[nH]c3c2)CC1 [DOVITINIB]
Ki [11]: > 1.58 µM (inactive) | Ki [12]: > 1.58 µM (inactive) | Ki [13]: > 10 µM (inactive) | Ki [14]: > 7.94 µM (inactive) | Ki [15]: > 6.31 µM (inactive) | Ki [16]: > 7.94 µM (inactive) | Ki [17]: > 10 µM (inactive) | Ki [18]: > 7.94 µM (inactive)
